Source: patent US20120208781A1, “AMINOGLYCOSIDE DOSING REGIMENS” (Achaogen, Inc., priority 2009, published 2012)

Assays:
[1] = test system: rat kidney; experiment: Rat nephrotoxicity model: serum markers of GFR (BUN, serum creatinine); format: in vivo, Sprague-Dawley rats; conditions: dose-response for BUN elevation
[2] = test system: rat kidney; experiment: Rat nephrotoxicity model: kidney histopathology (H&E); format: in vivo, Sprague-Dawley rats; conditions: rats, 14 d once-daily
Description: This rat nephrotoxicity study design used 14 days of once-daily dosing of aminoglycosides in adult Sprague-Dawley rats. Rats were allowed full access to food and water, and aminoglycosides were dosed subcutaneously at 1 mL/kg dosing volume, formulated in water. Nephrotoxicity was assessed by monitoring changes in serum markers of glomerular filtration rate (GFR), namely blood urea nitrogen (BUN) and serum creatinine. Microscopic examination of kidney slices after fixation and hematoxylin and eosin (H&E) staining was also utilized, scoring for tubular dilation, cellular casts, interstitial inflammation, and regenerative changes to the tubules.

[3] = test system: E. coli; experiment: MIC, further Brooklyn patient isolates: E. coli; format: cell-based; set-up: unit not given beside the values; conditions: E. coli (n = 3071)
Description: (§1) Minimum inhibitory concentrations (MIC) were determined by reference Clinical and Laboratory Standards Institute (CLSI) broth microdilution methods per M7-A7 [2006]. Briefly, serial two-fold dilutions of Compound 1 and comparator AGs (together, “the test compounds”) were prepared at 2× concentration in appropriate diluent. The dilutions were mixed in 96-well assay plates with bacterial inoculum. Bacteria were suspended in sterile saline and added to each assay plate to obtain a final concentration of 5.5×10^5 CFU/mL. The plates were incubated at 35° C. for 20 hours in ambient air. […] After incubation, assay plates were read using a microtiter plate reader at 600 nm.
(§2) Further studies analyzed a greater number of unique patient isolates obtained from Brooklyn, N.Y. hospitals (including those species described above). These species included Acinetobacter, E. coli, Enterobacter, Klebsiella, and Pseudomonas.

[4] = test system: Enterobacter; experiment: MIC, further Brooklyn patient isolates: Enterobacter; format: cell-based; set-up: unit not given beside the values; conditions: Enterobacter (n = 206)
Description: as §1, §2

| Structure (SMILES) | apparent relative nephrotoxicity (ranking) [1] | Histopathology score (0 to 5 Scale): Casts ([2]; 3 mg/kg) | Histopathology score (0 to 5 Scale): Dilation ([2]; 3 mg/kg) | Histopathology score (0 to 5 Scale): Inflammation ([2]; 3 mg/kg) | Histopathology score (0 to 5 Scale): Regeneration ([2]; 3 mg/kg) | Histopathology score (0 to 5 Scale): Casts ([2]; 10 mg/kg) | Histopathology score (0 to 5 Scale): Dilation ([2]; 10 mg/kg) | Histopathology score (0 to 5 Scale): Inflammation ([2]; 10 mg/kg) | Histopathology score (0 to 5 Scale): Regeneration ([2]; 10 mg/kg) | Histopathology score (0 to 5 Scale): Casts ([2]; 30 mg/kg) | Histopathology score (0 to 5 Scale): Dilation ([2]; 30 mg/kg) | Histopathology score (0 to 5 Scale): Inflammation ([2]; 30 mg/kg) | Histopathology score (0 to 5 Scale): Regeneration ([2]; 30 mg/kg) | Histopathology score (0 to 5 Scale): Casts ([2]; 100 mg/kg) | Histopathology score (0 to 5 Scale): Dilation ([2]; 100 mg/kg) | Histopathology score (0 to 5 Scale): Inflammation ([2]; 100 mg/kg) | Histopathology score (0 to 5 Scale): Regeneration ([2]; 100 mg/kg) | MIC50 [3] | MIC50 [4] |
| --- | --- | --- | --- | --- | --- | --- | --- | --- | --- | --- | --- | --- | --- | --- | --- | --- | --- | --- | --- |
| CN[C@@H]1[C@@H](O[C@H]2O[C@H](CO)[C@@H](N)[C@H](O)[C@H]2O)OC2C[C@@H](N)[C@@H](O[C@H]3[C@H](O)[C@@H](O)[C@H](N)C[C@@H]3N)OC2[C@@H]1O (some centres unmarked) [Apramycin, apramycin] | Neomycin≈Gentamicin>Tobramycin>Apramycin≈Paromomycin>Amikacin | 0 +/− 0 | 0 +/− 0 | 0.4 +/− 0.5 | 0 +/− 0 | 0 +/− 0 | 0 +/− 0 | 0.4 +/− 0.5 | 0.6 +/− 1.3 | 0 +/− 0 | 0 +/− 0 | 0.6 +/− 0.5 | 0.6 +/− 0.5 | 1.4 +/− 0.5 | 0.6 +/− 0.5 | 2.4 +/− 0.5 | 2.4 +/− 0.5 |  |  |
| CC(C)(O/N=C(\C(=O)N[C@@H]1C(=O)N2C(C(=O)[O-])=C(C[n+]3ccccc3)CS[C@H]12)c1csc(N)n1)C(=O)O [CAZ, ceftazidime] |  |  |  |  |  |  |  |  |  |  |  |  |  |  |  |  |  | ≦0.25 |  |
| CO/N=C(\C(=O)N[C@@H]1C(=O)N2C(C(=O)O)=C(CSc3nc(=O)c(O)nn3C)CS[C@H]12)c1csc(N)n1 [CRO] |  |  |  |  |  |  |  |  |  |  |  |  |  |  |  |  |  | ≦0.25 | ≦0.25 |
